# From PMC10676384, “Core-dependent post-translational modifications guide the biosynthesis of a new class of hypermodified peptides” (Nature Communications, 2023)
# Tested on: CcaF
# Assay: In vitro CcaF leader peptide removal assay
# Type: biochemical, Chryseobacterium carnipullorum DSM25581
# Conditions: substrate:CcaF 100:1 to 20:1; 50 mM Tris-HCl pH 8.0, RT overnight; MALDI-TOF MS
# Description: To identify the position of each modification and characterize the final product, the leader peptide must be excised. To this end, we focused on the putative peptidase CcaF. The sequence of CcaF is annotated as a S8 (subtilisin type) serine protease and contains a classical Asp-His-Ser catalytic triad. Recombinant CcaF was heterologously expressed in E. coli BL21(DE3) and purified as a polyHis-tagged protein (Supplementary Fig. 7). […] Given the structural divergence amongst these modified peptides, CcaF appears to be a protease with a broad substrate scope.
# The leader peptide was removed by protease CcaF. The reactions were performed in a 1.5 mL eppendorf tube with optimized ratio (100:1 to 20:1) of different substrates and CcaF in 50 mM Tris-HCl (pH =8.0) buffer at RT overnight. The substrates are different modified full length precursor peptide and synthetic 10-mer peptide. The reaction was monitored by MALDI-TOF MS, if the digestion was not completed, another 50:1 ratio CcaF protease was added and stay at RT for another 8 hours.
sequence,measurement,value
DELSATAAAA [10-mer peptide],cleavage by protease CcaF,digested at the expected position
